{"source": "patent US12472180B2", "about": "“Combinations for treatment of NAFLD/NASH and related diseases” (Pfizer Inc., priority 2020, dated 2025)", "key": {"[1]": {"tested_on": "ACC1, FASN, SCD1, PCSK9 and SREBP-1c", "test": "Hepatic lipogenic gene expression in Western diet fed rats (qPCR)", "format": "in vivo, rat", "settings": "Compound A: ACC1, FASN (high dose only), SCD, but not PCSK9 and SREBP1", "protocol": "(§1) A randomized, vehicle-controlled, 8-parallel arm study was conducted in male Sprague-Dawley rats (Charles River (Boston, MA)) to obtain circulating and hepatic TG levels. Standard laboratory conditions were used to house 96 rats (˜200 g); they were double housed and kept under 12:12-hour reverse light-dark schedule (lights off at 8:00 AM). Rats were randomized into chow or Western diet groups and dose groups upon arrival and were given a 14-day lead-in period on either standard rat chow or Western diet prior to the start of the study. Standard Laboratory Rodent chow diet, 5053, was from LabDiet (PMI, St Louis, Missouri). Western Diet, D12079Bi, was from Research Diets (New Brunswick, NJ).\nOn the last day of the study (Day 28), rats were sacrificed for tissue collection after a 4 hour fast, 2 hours post-dose: two hours post-dose, blood for determining plasma analytes was collected via lateral tail vein and then the animals were sacrificed by CO2 asphyxiation. Blood was transferred to BD Microtainer tubes coated with K2EDTA (PN365974), centrifuged at 4° C. and the plasma transferred to a 96-well microtitre plate and stored at −20° C. […]\nAnother portion of the pulverized liver was processed and analyzed for lipogenic gene expression. Rat taqman probes against ACC1, FASN, SCD1, PCSK9 and SREBP-1c were all assessed using Actb as housekeeping gene on qPCR."}, "αSMA and COL1A1": {"tested_on": "αSMA and COL1A1", "test": "Hepatic fibrogenesis gene expression in CDAHFD fed rats (qPCR)", "format": "in vivo, rat", "settings": "A 5 mg/kg, D 30 mg/kg twice daily, 6 weeks", "description": "Standard laboratory conditions were used to house 60 rats (˜200 g); they were double housed and kept under 12:12-hour reverse light-dark schedule (lights off at 8:00 AM). Rats were fed choline deficient and high fat diet (CDAHFD) beginning 6-weeks prior to initiation of the study. […] Animals (n=12) remaining on normal chow throughout the study and administered twice-daily vehicle were used as a control group. Blood samples were collected prior to starting compound administration and 3- and 6-week post compound administration for the assessment of circulating markers. Shearwave elastography (Aixplorer Ultimate imager, Supersoinc imagine) measurements were made at Week −3, Week 0 (prior to 1st dose), Week 3 and Week 6 to assess inflammation and fibrosis progression over time. Histology was assessed following 6-weeks of drug administration which corresponded to 12 weeks on the CDAHFD. Results are provided as an average of animals per each dosing group.\nFollowing the 12-weeks on CDAHFD, the animals were sacrificed by CO2 asphyxiation. The right lateral, medial and left lateral lobes of the liver were harvested. Sections were taken from the left lateral, right medial and right lateral lobes and fixed in formalin and processed to paraffin blocks per animal. One section of left lateral lobe per animal was cryopreserved in optimal cutting temperature (OCT) compound. The remainder of the liver from each animal was frozen and rapidly pulverized on an aluminum block cooled in liquid N2, ensuring the tissue remained frozen throughout the pulverization. The pulverized tissue was transferred and stored at −80° C. until analysis. A portion of the pulverized liver sample from each animal was processed and analyzed for gene expression markers of fibrogenesis. Rat taqman probes against αSMA and COL1A1 were all assessed using Actb as housekeeping gene on qPCR."}, "SREBP-1": {"tested_on": "SREBP-1", "test": "Nuclear SREBP-1 localization in liver of Western diet fed rats (Western blot)", "format": "in vivo, rat", "settings": "high dose monotherapy (A 10 mg/kg QD; D 30 mg/kg BID); pooled liver samples", "protocol": "as §1, with “NJ). […]” for “NJ).”\nNuclear and Membrane fractions were prepared by ultracentrifugation using standard methods from a portion of the pulverized liver samples, that were pooled per treatment group. Samples from the nuclear extract and the membrane fractions were analyzed by Western blotting for SREBP1. […] Nuclear SREBP1 levels were quantified using relative units and normalized to Histone 2B to control for sample loss during the nuclear fractionation and gel loading."}, "[2]": {"tested_on": "Western diet fed Sprague Dawley rats", "test": "Hepatic triglyceride (steatosis) in Western diet fed rats", "format": "in vivo, rat", "settings": "or both, Day 28", "protocol": "as §1\n(§2) For these studies, vehicle was prepared to make a 0.5% (wt/volume) of methyl cellulose (MC, Sigma Aldrich; 274429) in deionized water.\nOn the last day of the study (Day 28), rats were sacrificed for tissue collection after a 4 hour fast, 2 hours post-dose: two hours post-dose, blood for determining plasma analytes was collected via lateral tail vein and then the animals were sacrificed by CO2 asphyxiation. Blood was transferred to BD Microtainer tubes coated with K2EDTA (PN365974), centrifuged at 4° C. and the plasma transferred to a 96-well microtitre plate and stored at −20° C. Livers were rapidly removed, freeze-clamped in a Wollenberg clamp pre-cooled in liquid N2 individually wrapped in aluminum foil and subsequently stored at −80° C.\nTissue pulverization: Frozen livers were rapidly pulverized on an aluminum block cooled in liquid N2, ensuring the tissue remained frozen throughout the pulverization. The pulverized tissues were transferred and stored in 7 mL polypropylene conical tubes at −80° C. until analysis.\nExtraction for hepatic triglyceride: Approximately 50 to 100 mg of pulverized tissue was added to a 2 mL lysing matrix D tube (MP Bio) containing 800 μL ice cold 1:1 CHCl3:MEOH. Samples were immediately extracted at 4° C. using Qiagen Tissue Lyser II (Qiagen Cat No. 85300) for 4 minutes at 30 Hz. The homogenate was then transferred to 13×100 mm glass tubes and placed on ice. The lysis tubes were then rinsed with 800 μL of 1:1 CHCl3:MeOH, vortexed for 30 seconds and added to the 13×100 mm glass tubes. While on ice, 2.4 ml of 100% CHCl3 was added to all glass vials to bring the ratio of CHCl3:MeOH to 4:2. Samples were then placed in the −20° C. freezer overnight. On the following day, 1.75 mL 1M KCl H2O was added to bring the ratio to 4:2:1.75 ratio CHCl3:MeOH:H2O. Samples were then vortexed for 30 seconds and centrifuged at 1500 rpm×15 min., at 4° C. After centrifugation, the organic phase was transferred to a fresh 13×100 mm extraction tube, dried down at 37° C. under N2 and re-suspended in 750 μL CHCl3. […]"}, "[3]": {"tested_on": "Western diet fed Sprague Dawley rats", "test": "Plasma triglycerides (fed and fasted) in Western diet fed Sprague Dawley rats", "format": "in vivo, rat", "settings": "4 hour fast", "protocol": "as §1, §2\nFed plasma analytes: Blood for determining fed plasma TG concentrations was collected 2 hours post dose (2 hours into the dark cycle) via lateral tail vein, transferred to BD Microtainer tubes coated with dipotassium ethylenediaminetetraacetic acid (K2EDTA) (PN365974), and centrifuged at 4° C. The resulting plasma samples were then analyzed on a Siemens Chemistry XPT clinical analyzer (Malven, PA) using Siemens triglycerides_2 assay reagents (ref 10335892).\nFasted plasma analytes: Blood for determining fasted plasma TG was collected after a 4 hour fast, 2 hours post-dose (2 hours into the dark cycle) via lateral tail vein, transferred to BD Microtainer tubes coated with K2EDTA (PN365974), and centrifuged at 4° C. The resulting plasma samples were then analyzed on a Siemens Chemistry XPT clinical analyzer (Malven, PA) using Siemens triglycerides 2 assay reagents (ref 10335892)."}, "[4]": {"test": "Thermodynamic stability of crystalline forms versus water activity", "format": "physicochemical", "settings": "ambient temperature; about 0.2 = 20% RH"}, "[5]": {"settings": "high dose: A 10 mg/kg QD, D 30 mg/kg BID"}, "[6]": {"settings": "low dose: A 1 mg/kg QD, D 5 mg/kg BID"}}, "note": "Counter-ions that a name gives are not always drawn.", "data": [{"smiles": "COc1cc(C(=O)N2CCC3(CC2)CC(=O)c2c(cnn2C(C)C)C3)cc(-c2ccc(C(=O)O)cc2)n1", "note": "[Compound A, 4-(4-(1-isopropyl-7-oxo-1,4,6,7-tetrahydrospiro[indazole-5,4′-piperidine]-1′-carbonyl)-6-methoxypyridin-2-yl)benzoic acid]", "values": [{"measurement": "hepatic lipogenic gene expression (ACC1, FASN, SCD1, SREBP-1c, PCSK9) relative to Western diet fed vehicle treated animals", "setting": "[1]", "result": "trended to further increase"}, {"measurement": "hepatic COL1A1 gene expression", "setting": "αSMA and COL1A1", "result": "reduced hepatic αSMA and COL1A1 gene expression"}, {"measurement": "hepatic αSMA gene expression", "setting": "αSMA and COL1A1", "result": "reduced hepatic αSMA and COL1A1 gene expression"}, {"measurement": "nuclear SREBP-1 localization relative to vehicle treated Western diet fed rats", "setting": "SREBP-1", "result": "increased nuclear localization of SREBP-1"}, {"measurement": "reduction in steatosis (hepatic triglyceride), relative to vehicle administered Western diet fed rats", "setting": "[2]; [5]", "result": 53, "unit": "%"}, {"measurement": "reduction in steatosis (hepatic triglyceride), relative to vehicle administered Western diet fed rats", "setting": "[2]; [6]", "result": 36, "unit": "%"}, {"measurement": "increase in fasted plasma TG, relative to vehicle administered Western diet fed rats", "setting": "[3]; high dose: Compound A 10 mg/kg QD monotherapy", "result": 1.7, "unit": "fold"}, {"measurement": "increase in fasted plasma TG, relative to vehicle administered Western diet fed rats", "setting": "[3]; low dose: Compound A 1 mg/kg QD monotherapy", "result": 2.4, "unit": "fold"}]}, {"smiles": "CCOc1cccnc1Oc1cncc(-c2ncc(C(=O)N[C@H]3CCOC3)cn2)c1", "note": "[Compound D, (S)-2-(5-((3-ethoxypyridin-2-yl)oxy)pyridin-3-yl)-N-(tetrahydrofuran-3-yl)pyrimidine-5-carboxamide]", "values": [{"measurement": "hepatic lipogenic gene expression (ACC1, FASN, SCD1, SREBP-1c, PCSK9) relative to Western diet fed vehicle treated animals", "setting": "[1]", "result": "decreased expression of all of the lipogenic genes"}, {"measurement": "hepatic COL1A1 gene expression", "setting": "αSMA and COL1A1", "result": "reduced hepatic αSMA and COL1A1 gene expression"}, {"measurement": "hepatic αSMA gene expression", "setting": "αSMA and COL1A1", "result": "reduced hepatic αSMA and COL1A1 gene expression"}, {"measurement": "nuclear SREBP-1 localization relative to vehicle treated Western diet fed rats", "setting": "SREBP-1", "result": "reduced SREBP-1 nuclear localization"}, {"measurement": "reduction in steatosis (hepatic triglyceride), relative to vehicle administered Western diet fed rats", "setting": "[2]; [5]", "result": 30, "unit": "%"}, {"measurement": "reduction in steatosis (hepatic triglyceride), relative to vehicle administered Western diet fed rats", "setting": "[2]; [6]", "result": 25, "unit": "%"}, {"measurement": "reduction of fasted plasma TG, relative to vehicle administered Western diet fed rats", "setting": "[3]; high dose: Compound D 30 mg/kg BID monotherapy", "result": 35, "unit": "%"}, {"measurement": "reduction of fasted plasma TG, relative to vehicle administered Western diet fed rats", "setting": "[3]; low dose: Compound D 5 mg/kg BID monotherapy", "result": 20, "unit": "%"}]}, {"smiles": "COc1cc(C(=O)N2CCC3(CC2)CC(=O)c2c(cnn2C(C)C)C3)cc(-c2ccc(C(=O)O)cc2)n1", "note": "[Form 1 of Compound A, 4-(4-(1-isopropyl-7-oxo-1,4,6,7-tetrahydrospiro[indazole-5,4′-piperidine]-1′-carbonyl)-6-methoxypyridin-2-yl)benzoic acid anhydrous tris salt]", "values": [{"measurement": "water activity at which the form is thermodynamically stable", "setting": "[4]", "result": "< 0.2"}]}, {"smiles": "COc1cc(C(=O)N2CCC3(CC2)CC(=O)c2c(cnn2C(C)C)C3)cc(-c2ccc(C(=O)O)cc2)n1", "note": "[Form 2 of Compound A]", "values": [{"measurement": "water activity at which the form is thermodynamically stable", "setting": "[4]", "result": "> 0.2"}]}]}
